Measured values as given in the Kinase Knowledgebase extract (Sharma et al. 2016).

Molecular target: MAPK14 (human) (UniProt Q16539)
Test: Inhibition of MAPK14 Kinase Activity

MAPK14 (human), sequence (Q16539 whole entry, looked up): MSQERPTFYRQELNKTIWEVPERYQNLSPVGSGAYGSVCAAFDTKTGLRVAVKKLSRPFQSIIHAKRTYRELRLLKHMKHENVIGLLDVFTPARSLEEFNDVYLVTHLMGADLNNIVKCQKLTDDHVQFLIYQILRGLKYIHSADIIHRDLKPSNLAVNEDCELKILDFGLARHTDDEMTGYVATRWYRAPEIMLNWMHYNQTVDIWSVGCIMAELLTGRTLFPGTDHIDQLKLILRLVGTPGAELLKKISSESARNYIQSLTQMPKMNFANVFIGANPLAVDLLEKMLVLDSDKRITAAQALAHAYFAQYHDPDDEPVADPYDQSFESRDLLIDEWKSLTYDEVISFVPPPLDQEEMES

IC50	Compound
≤ 1 µM	CC(C)NC(=O)c1csc(-c2oc(CNC(=O)c3ccc(Cl)nc3)nc2-c2ccc(F)cc2)n1
≤ 1 µM	CC(C)NC(=O)c1csc(-c2oc(CNC(=O)c3ccc(O)cc3O)nc2-c2ccc(F)cc2)n1
≤ 1 µM	CC(C)NC(=O)c1csc(-c2oc(CNC(=O)c3ncc[nH]3)nc2-c2ccc(F)cc2)n1
≤ 1 µM	Cc1nc(-c2ccc(F)cc2)c(-c2nc(C(=O)NCc3ccc(C)c(C)c3)cs2)s1
≤ 1 µM	CC(C)NC(=O)c1csc(-c2c(-c3ccc(F)cc3)n[nH]c2C2CCN(C(=O)c3cc(O)ccc3[N+](=O)[O-])CC2)n1
≤ 1 µM	CC(C)NC(=O)c1csc(-c2oc(CNC(=O)c3ccccc3[N+](=O)[O-])nc2-c2ccc(F)cc2)n1
≤ 1 µM	CCNC(=O)c1csc(-c2c(-c3ccc(F)cc3)n[nH]c2C2CCNCC2)n1
≤ 1 µM	Cc1nc(-c2ccc(F)cc2)c(-c2nc(C(=O)NCc3cccnc3)cs2)s1
≤ 1 µM	CC(C)NC(=O)c1csc(-c2oc(CNCCc3ccc(O)cc3)nc2-c2ccc(F)cc2)n1
≤ 1 µM	Cc1nc(-c2ccc(F)cc2)c(-c2nc(C(=O)NCC3CC3)cs2)s1
≤ 1 µM	CC(C)NC(=O)c1csc(-c2[nH][nH]c(=O)c2-c2ccc(F)cc2)n1
≤ 1 µM	CC(C)NC(=O)c1csc(-c2oc(CNC(=O)c3cc(O)ccc3O)nc2-c2ccc(F)cc2)n1
≤ 1 µM	CC(C)NC(=O)c1csc(-c2oc(CN3CCN(C(=O)c4ccc(N(C)C=O)cc4)CC3)nc2-c2ccc(F)cc2)n1
≤ 1 µM	Cc1nc(-c2ccc(F)cc2)c(-c2nc(C(=O)Nc3cccc(Cl)c3C)cs2)s1
≤ 1 µM	CC(C)NC(=O)c1csc(-c2c(-c3ccc(F)cc3)noc2CNC(=O)C(F)(F)F)n1
≤ 1 µM	Cc1nc(-c2ccc(F)cc2)c(-c2nc(C(=O)Nc3ccc(N(C)C)cc3)cs2)s1
≤ 1 µM	CC(C)NC(=O)c1csc(-c2oc(CN3CCN(C(=O)c4cc(O)c(O)c(O)c4)CC3)nc2-c2ccc(F)cc2)n1
≤ 1 µM	Cc1nc(-c2ccc(F)cc2)c(-c2nc(C(=O)NCc3ccccc3)cs2)s1
≤ 1 µM	CC(C)NC(=O)c1csc(-c2oc(CNC(=O)c3cncc(Br)c3)nc2-c2ccc(F)cc2)n1
≤ 1 µM	CCOC(=O)CC(C)NC(=O)c1csc(-c2sc(C)nc2-c2ccc(F)cc2)n1 (stereo not drawn)
≤ 1 µM	COc1ccc(C=CC(=O)NCc2nc(-c3ccc(F)cc3)c(-c3nc(C(=O)NC(C)C)cs3)o2)cc1O
≤ 1 µM	CC(C)NC(=O)c1csc(-c2c(-c3ccc(F)cc3)n[nH]c2C2CCN(C(=O)c3ccncc3Cl)CC2)n1
≤ 1 µM	Cc1nc(-c2ccc(F)cc2)c(-c2nc(C(=O)NCC3CCCCC3)cs2)s1
≤ 1 µM	COc1ccc(C(=O)N2CCN(Cc3nc(-c4ccc(F)cc4)c(-c4nc(C(=O)NC(C)C)cs4)o3)CC2)cc1O
≤ 1 µM	CC(C)NC(=O)c1csc(-c2oc(CNC(=O)c3cnc(O)c(Cl)c3)nc2-c2ccc(F)cc2)n1
≤ 1 µM	COc1ccccc1CC(=O)NCc1nc(-c2ccc(F)cc2)c(-c2nc(C(=O)NC(C)C)cs2)o1
≤ 1 µM	CC(C)NC(=O)c1csc(-c2c(-c3ccc(F)cc3)n[nH]c2C2CCN(C(=O)c3cccc(O)c3)CC2)n1
≤ 1 µM	CC(C)NC(=O)c1csc(-c2oc(CNC(=O)CCc3ccccc3O)nc2-c2ccc(F)cc2)n1

More lines, now with the values behind:

Compound	IC50
CCN(CC)c1ccc(C(=O)N2CCN(Cc3nc(-c4ccc(F)cc4)c(-c4nc(C(=O)NC(C)C)cs4)o3)CC2)cc1	≤ 1 µM
CC(C)NC(=O)c1csc(-c2c(-c3ccc(F)cc3)noc2CN(C)CCc2ccccn2)n1	≤ 1 µM
Cc1nc(-c2ccc(F)cc2)c(-c2nc(C(=O)N3CCCC3CO)cs2)s1 (stereo not drawn)	≤ 1 µM
CC(C)NC(=O)c1csc(-c2c(-c3ccc(F)cc3)n[nH]c2C2CCN(C(=O)C=O)CC2)n1	≤ 1 µM
CC(C)NC(=O)c1csc(-c2oc(CNC(=O)c3cnc[nH]3)nc2-c2ccc(F)cc2)n1	≤ 1 µM
Cc1ccc(CNC(=O)c2csc(-c3sc(C)nc3-c3ccc(F)cc3)n2)cc1	≤ 1 µM
CC(C)NC(=O)c1csc(-c2oc(CNC(=O)C=Cc3ccccc3F)nc2-c2ccc(F)cc2)n1	≤ 1 µM
COc1ccc(CNC(=O)c2csc(-c3c(-c4ccc(F)cc4)n[nH]c3C3CCNCC3)n2)cc1	≤ 1 µM
CC(C)NC(=O)c1csc(-c2oc(CNC(=O)C3CCCCC3)nc2-c2ccc(F)cc2)n1	≤ 1 µM
CC(C)NC(=O)c1csc(-c2c(-c3ccc(F)cc3)n[nH]c2C2CCN(C(=O)c3cscn3)CC2)n1	≤ 1 µM
CC(C)NC(=O)c1csc(-c2c(-c3ccc(F)cc3)noc2CN(C)CCO)n1	≤ 1 µM
CC(C)NC(=O)c1csc(-c2c(-c3ccc(F)cc3)noc2CNCC#N)n1	≤ 1 µM
CC(C)NC(=O)c1csc(-c2oc(CNC(=O)c3cc(F)ccc3[N+](=O)[O-])nc2-c2ccc(F)cc2)n1	≤ 1 µM
CC(=O)NCC(=O)N1CCC(c2[nH]nc(-c3ccc(F)cc3)c2-c2nc(C(=O)NC(C)C)cs2)CC1	≤ 1 µM
O=C(NCCO)c1csc(-c2c(-c3ccc(F)cc3)n[nH]c2C2CCNCC2)n1	≤ 1 µM
COc1cc(OC)c(C(=O)N2CCN(Cc3nc(-c4ccc(F)cc4)c(-c4nc(C(=O)NC(C)C)cs4)o3)CC2)c(OC)c1	≤ 1 µM
CC(=O)N1CCC(n2cnc(-c3ccc(F)cc3)c2-c2nc(C(=O)NC(C)C)cs2)CC1	≤ 1 µM
Cc1onc(-c2ccc(Cl)cc2)c1-c1ccn(C(=O)NC2CCCCC2)n1	≤ 1 µM
CC(C)NC(=O)c1csc(-c2oc(CN3CCN(C(=O)C(C)(C)C)CC3)nc2-c2ccc(F)cc2)n1	≤ 1 µM
COCc1onc(-c2ccc(Cl)cc2)c1-c1ccn(C(=O)NC(C)C)n1	≤ 1 µM

Compound	IC50
CC(C)NC(=O)c1csc(-c2oc(CNC(=O)c3ccncc3Cl)nc2-c2ccc(F)cc2)n1	≤ 1 µM
Cc1nc(-c2ccc(F)cc2)c(-c2nc(C(=O)Nc3ccccc3-c3ccccc3)cs2)s1	≤ 1 µM
CC(C)NC(=O)c1csc(-c2c(-c3ccc(F)cc3)ncn2C)n1	≤ 1 µM
Cc1nc(-c2ccc(F)cc2)c(-c2nc(C(=O)NCc3ccco3)cs2)s1	≤ 1 µM
CCN(Cc1onc(-c2ccc(F)cc2)c1-c1nc(C(=O)NC(C)C)cs1)C(Cc1ccccc1)c1ccco1 (stereo not drawn)	≤ 1 µM
CC(C)NC(=O)c1csc(-c2[nH]c(N)nc2-c2ccc(F)cc2)n1	≤ 1 µM
CC(C)NC(=O)c1csc(-c2c(-c3ccc(F)cc3)n[nH]c2C2CCN(C(=O)c3ncc[nH]3)CC2)n1	≤ 1 µM
Cc1nc(-c2ccc(F)cc2)c(-c2nc(C(=O)NCCc3c[nH]c4ccccc34)cs2)s1	≤ 1 µM
CC(C)NC(=O)c1csc(-c2oc(CN3CCN(C(=O)CCc4ccccc4O)CC3)nc2-c2ccc(F)cc2)n1	≤ 1 µM
CC(C)NC(=O)c1csc(-c2oc(CNC(=O)c3ccc4ncccc4c3)nc2-c2ccc(F)cc2)n1	≤ 1 µM
CC(C)NC(=O)c1csc(-c2oc(CNC(=O)c3ccc4cc(O)ccc4c3)nc2-c2ccc(F)cc2)n1	≤ 1 µM
CC(C)NC(=O)c1csc(-c2c(-c3ccc(F)cc3)n[nH]c2C2CCN(C(=O)C3CCCO3)CC2)n1 (stereo not drawn)	≤ 1 µM
CC(C)NC(=O)c1csc(-c2oc(CNC(=O)c3cc(C(C)C)cc(C(C)C)c3O)nc2-c2ccc(F)cc2)n1	≤ 1 µM
CC(C)NC(=O)c1csc(-c2oc(CNC(=O)CC3=CC(Cl)=C(O)OC3)nc2-c2ccc(F)cc2)n1	≤ 1 µM
CC(C)NC(=O)c1csc(-c2oc(CNC(=O)c3c(F)cccc3Cl)nc2-c2ccc(F)cc2)n1	≤ 1 µM
Cc1nc(-c2ccc(F)cc2)c(-c2nc(C(=O)NCc3ccccc3OC(F)(F)F)cs2)s1	≤ 1 µM
COc1ccc(NC(=O)c2csc(-c3sc(C)nc3-c3ccc(F)cc3)n2)cc1OC	≤ 1 µM
CC(C)NC(=O)c1csc(-c2oc(CNC(C)C(C)C)nc2C2=CC=C(F)OC2)n1 (stereo not drawn)	≤ 1 µM
Cc1ccc([N+](=O)[O-])c(C(=O)NCc2nc(-c3ccc(F)cc3)c(-c3nc(C(=O)NC(C)C)cs3)o2)c1	≤ 1 µM
CC1=NN(c2ccc(C(=O)NCc3nc(-c4ccc(F)cc4)c(-c4nc(C(=O)NC(C)C)cs4)o3)cc2)C(=O)C1	≤ 1 µM

Compound	IC50
COc1ccccc1CC(=O)N1CCN(Cc2nc(-c3ccc(F)cc3)c(-c3nc(C(=O)NC(C)C)cs3)o2)CC1	≤ 1 µM
CC(C)NC(=O)c1csc(-c2c(-c3ccc(F)cc3)n[nH]c2C2CCN(C(=O)c3ccc(C=O)cc3)CC2)n1	≤ 1 µM
COc1ccccc1C=CC(=O)N1CCN(Cc2nc(-c3ccc(F)cc3)c(-c3nc(C(=O)NC(C)C)cs3)o2)CC1	≤ 1 µM
CC(C)NC(=O)c1csc(-c2oc(CNC(=O)c3cccc(O)c3O)nc2-c2ccc(F)cc2)n1	≤ 1 µM
COc1ccccc1CNC(=O)c1csc(-c2sc(C)nc2-c2ccc(F)cc2)n1	≤ 1 µM
COc1cccc(OC)c1C(=O)NCc1nc(-c2ccc(F)cc2)c(-c2nc(C(=O)NC(C)C)cs2)o1	≤ 1 µM
CC(C)NC(=O)c1csc(-c2oc(CN3CCN(C(=O)C4CCc5ccccc5C4)CC3)nc2-c2ccc(F)cc2)n1 (stereo not drawn)	≤ 1 µM
CC(C)NC(=O)c1csc(-c2c(-c3ccc(F)cc3)noc2CNC(=O)c2ccc([N+](=O)[O-])cc2Cl)n1	≤ 1 µM
COc1ccc([N+](=O)[O-])c(C(=O)NCc2nc(-c3ccc(F)cc3)c(-c3nc(C(=O)NC(C)C)cs3)o2)c1	≤ 1 µM
CC(C)NC(=O)c1csc(-c2c(-c3ccc(F)cc3)noc2CNC(=O)C(O)CCl)n1 (stereo not drawn)	≤ 1 µM
Cc1nc(-c2ccc(F)cc2)c(-c2nc(C(=O)NCCc3cccc(F)c3)cs2)s1	≤ 1 µM
Cc1nc(-c2ccc(F)cc2)c(-c2nc(C(=O)NC3CCCC3)cs2)s1	≤ 1 µM
COc1ccc(CNC(=O)c2csc(-c3sc(C)nc3-c3ccc(F)cc3)n2)cc1O	≤ 1 µM
CC(C)NC(=O)c1csc(-c2oc(CNC(=O)C3CN(C(=O)OC(C)(C)C)CCN3)nc2-c2ccc(F)cc2)n1 (stereo not drawn)	≤ 1 µM
CC(C)NC(=O)c1csc(-c2oc(CNC(=O)c3ccc(F)cc3F)nc2-c2ccc(F)cc2)n1	≤ 1 µM
Cc1cccc([N+](=O)[O-])c1C(=O)N1CCN(Cc2nc(-c3ccc(F)cc3)c(-c3nc(C(=O)NC(C)C)cs3)o2)CC1	≤ 1 µM
Cc1nc(-c2ccc(F)cc2)c(-c2nc(C(=O)NCCc3ccc4c(c3)OCO4)cs2)s1	≤ 1 µM
CC(CC(=O)N1CCN(Cc2nc(-c3ccc(F)cc3)c(-c3nc(C(=O)NC(C)C)cs3)o2)CC1)CC(C)(C)C (stereo not drawn)	≤ 1 µM
Cc1onc(-c2ccc(F)c(Cl)c2)c1-c1ccn(C(=O)NC(C)C)n1	≤ 1 µM
Cc1nc(-c2ccc(F)cc2)c(-c2nc(C(=O)NC3CCN(Cc4ccccc4)C3)cs2)s1 (stereo not drawn)	≤ 1 µM
